Laboratory results as given in patent publication US7763728B2, “Tetrahydropyridothiophenes” (4SC AG, priority 2005, dated 2010).
pIC50: −log10 of the molar value.

Assays:
[1] = test system: RKO (RKOp27) human colon adenocarcinoma cells; test: Alamar Blue cell viability assay, anti-proliferative/cytotoxic activity on proliferating (uninduced) RKOp27 cells; assay type: cell-based; conditions: 72 hours incubation, absence of the inducer Ponasterone A, read-out: IC50 RKO p27 uninduced (proliferating)
Protocol: The anti-proliferative/cytotoxic activity of the compounds described herein, can be tested on subclones of RKO (RKOp27) human colon adenocarcinoma cells (Schmidt et al., Oncogene 19, 2423-2429; 2000) using the Alamar Blue cell viability assay (described in O'Brien et al. Eur J Biochem 267, 5421-5426, 2000). The compounds are dissolved as 20 mM solutions in dimethylsulfoxide (DMSO) and subsequently diluted in semi-logarithmic steps. DMSO dilutions are further diluted 1:100 into Dulbecco's modified Eagle's medium (DMEM) containing 10% fetal calf serum to a final concentration twice as much as the final concentration in the test. RKO subclones are seeded into 96 well flat bottom plates at a density of 5000 cells per well in a volume of 50 μl per well. 24 hours after seeding the 50 μl each of the compound dilutions in DMEM medium are added into each well of the 96 Well plate. Each compound dilution is tested as quadruplicates. Wells containing untreated control cells are filled with 50 μl DMEM medium containing 1% DMSO. The cells are then incubated with the substances for 72 hours at 37° C. in a humified atmosphere containing 5% carbon dioxide. To determine the viability of the cells, 10 μl of an Alamar Blue solution (Biosource) are added and the fluorescence is measured at an extinction of 544 nm and an emission of 590 nm. For the calculation of the cell viability the emission value from untreated cells is set as 100% viability and the emission rates of treated cells are set in relation to the values of untreated cells. Viabilities are expressed as % values.
The corresponding IC50 values of the compounds for anti-proliferative/cytotoxic activity are determined from the concentration-effect curves.
Representative IC50 values for anti-proliferation/cytotoxicity determined in the mentioned assay follow from the following table A, in which the numbers of the compounds correspond to the numbers of the examples.

[2] = test system: RKO colon adenocarcinoma cells (RKOp27) arrested by the expression of ectopic p27Kip1; test: Alamar Blue cell viability assay on RKOp27 cells arrested by p27Kip1 expression induced by Ponasterone A; assay type: cell-based; conditions: Homo sapiens, 72 hours incubation, 10 μM Ponasterone A, read-out: IC50 RKO p27 induced (arrested)
Protocol: To determine the cell cycle specific mode of action, subclones of RKO colon adenocarcinoma cells (RKOp27 or RKOp21 as described by Schmidt et al. in Oncogene 19, 2423-2429; 2000) are seeded into 96 well flat bottom plates at a density of 15000 cells per well in a volume of 50 μl per well in DMEM growth medium with 10% FCS containing 10 μM Ponasterone A. 24 hours after seeding the 50 μl each of the compound dilutions in DMEM medium are added into each well of the 96 Well plate. Each compound dilution is tested as quadruplicates. Wells containing untreated control cells are filled with 50 μl DMEM medium containing 1% DMSO. The cells are then incubated with the substances for 72 hours at 37° C. in a humidified atmosphere containing 5% carbon dioxide. To determine the viability of the cells, 10 μl of an Alamar Blue solution (Biosource) are added and the fluorescence was measured at an extinction of 544 nm and an emission of 590 nm. For the calculation of the cell viability the emission value from untreated cells is set as 100% viability and the emission rates of treated cells are set in relation to the values of untreated cells. Viabilities are expressed as % values. Viability is compared of proliferating cells grown in the absence of the inducer Ponasterone A, versus viability of cells arrested by the expression of ectopic p27Kip1 induced by Ponasterone A.

Row | SMILES | pIC50 [2] | pIC50 [1]
1 | COc1ccccc1C(C)CC(=O)Nc1sc2c(c1C#N)CCN(C(=O)Cn1ccnc1C)C2 (racemic) [Example 127, (RS)—N-{3-Cyano-6-[2-(2-methyl-imidazol-1-yl)-ethanoyl]-4,5,6,7-tetrahydro-thieno[2,3-c]pyridin-2-yl}-3-(2-methoxy-phenyl)-butyramide] | ≤ 4.40 | ≥ 6.52
2 | COc1ccccc1C(C)CC(=O)Nc1sc2c(c1C#N)CCN(C(=O)Cn1cnc(C)c1)C2 (racemic) [Example 135, (RS)—N-{3-Cyano-6-[2-(4-methyl-imidazol-1-yl)-ethanoyl]-4,5,6,7-tetrahydro-thieno[2,3-c]pyridin-2-yl}-3-(2-methoxy-phenyl)-butyramide] | ≤ 4.40 | 5.70 to 6.52
3 | CCOc1ccccc1C(C)CC(=O)Nc1sc2c(c1C#N)CCN(C(=O)CCn1cnc(C)c1)C2 (racemic) [Example 153, (RS)—N-{3-Cyano-6-[3-(4-methyl-imidazol-1-yl)-propanoyl]-4,5,6,7-tetrahydro-thieno[2,3-c]pyridin-2-yl}-3-(2-ethoxy-phenyl)-butyramide] | ≤ 5.00 | 5.70 to 6.52
4 | COc1ccccc1CCC(=O)Nc1sc2c(c1C#N)CCN(C(=O)CCc1cccnc1)C2 [Example 1, N-[3-Cyano-6-(3-pyridin-3-yl-propanoyl)-4,5,6,7-tetrahydro-thieno[2,3-c]pyridin-2-yl]-3-(2-methoxy-phenyl)-propionamide] | < 4.00 | ≥ 6.52
5 | COc1ccccc1CCC(=O)Nc1sc2c(c1C#N)CCN(C(=O)Cc1cccnc1)C2 [Example 2, N-[3-Cyano-6-(2-pyridin-3-yl-ethanoyl)-4,5,6,7-tetrahydro-thieno[2,3-c]pyridin-2-yl]-3-(2-methoxy-phenyl)-propionamide] | ≤ 4.40 | ≥ 6.52
6 | COc1ccccc1CCC(=O)Nc1sc2c(c1C#N)CCN(C(=O)Cc1ccncc1)C2 [Example 3, N-[3-Cyano-6-(2-pyridin-4-yl-ethanoyl)-4,5,6,7-tetrahydro-thieno[2,3-c]pyridin-2-yl]-3-(2-methoxy-phenyl)-propionamide] | ≤ 4.40 | ≥ 6.52
7 | COC(=O)CCC(=O)N1CCc2c(sc(NC(=O)CCc3ccccc3OC)c2C#N)C1 [Example 4, 4-{3-Cyano-2-[3-(2-methoxy-phenyl)-propanoylamino]-4,7-dihydro-5H-thieno[2,3-c]pyridin-6-yl}-4-oxo-butyric acid methyl ester] | < 4.00 | 5.70 to 6.52
8 | COCC(=O)N1CCc2c(sc(NC(=O)CCc3ccccc3OC)c2C#N)C1 [Example 5, N-[3-Cyano-6-(2-methoxy-ethanoyl)-4,5,6,7-tetrahydro-thieno[2,3-c]pyridin-2-yl]-3-(2-methoxy-phenyl)-propionamide] | < 4.00 | ≥ 6.52
9 | COCCOCC(=O)N1CCc2c(sc(NC(=O)CCc3ccccc3OC)c2C#N)C1 [Example 6, N-{3-Cyano-6-[2-(2-methoxy-ethoxy)-ethanoyl]-4,5,6,7-tetrahydro-thieno[2,3-c]pyridin-2-yl}-3-(2-methoxy-phenyl)-propionamide] | ≤ 4.40 | 5.70 to 6.52
10 | COc1ccccc1CCC(=O)Nc1sc2c(c1C#N)CCN(C(=O)COC(C)=O)C2 [Example 7, Acetic acid 2-{3-cyano-2-[3-(2-methoxy-phenyl)-propanoylamino]-4,7-dihydro-5H-thieno[2,3-c]pyridin-6-yl}-2-oxo-ethyl ester] | < 4.00 | ≥ 6.52

Second part, led by results:

Row | pIC50 [2] | SMILES | pIC50 [1]
11 | ≤ 5.00 | COc1ccccc1C(C)CC(=O)Nc1sc2c(c1C#N)CCN(C(=O)CCn1ccnc1C)C2 (racemic) [Example 105, (RS)—N-{3-Cyano-6-[3-(2-methyl-imidazol-1-yl)-propanoyl]-4,5,6,7-tetrahydro-thieno[2,3-c]pyridin-2-yl}-3-(2-methoxy-phenyl)-butyramide] | 5.70 to 6.52
12 | ≤ 5.00 | CCOc1ccccc1C(C)CC(=O)Nc1sc2c(c1C#N)CCN(C(=O)CCn1ccnc1C)C2 (racemic) [Example 106, (RS)—N-{3-Cyano-6-[3-(2-methyl-imidazol-1-yl)-propanoyl]-4,5,6,7-tetrahydro-thieno[2,3-c]pyridin-2-yl}-3-(2-ethoxy-phenyl)-butyramide] | 5.70 to 6.52
13 | ≤ 5.00 | COc1ccccc1C(C)CC(=O)Nc1sc2c(c1C#N)CCN(C(=O)CCc1nccn1C)C2 (racemic) [Example 113, (RS)—N-{3-Cyano-6-[3-(1-methyl-1H-imidazol-2-yl)-propanoyl]-4,5,6,7-tetrahydro-thieno[2,3-c]pyridin-2-yl}-3-(2-methoxy-phenyl)-butyramide] | 5.70 to 6.52
14 | ≤ 5.00 | CCOc1ccccc1C(C)CC(=O)Nc1sc2c(c1C#N)CCN(C(=O)CCc1nccn1C)C2 (racemic) [Example 114, (RS)—N-{3-Cyano-6-[3-(1-methyl-1H-imidazol-2-yl)-propanoyl]-4,5,6,7-tetrahydro-thieno[2,3-c]pyridin-2-yl}-3-(2-ethoxy-phenyl)-butyramide] | 5.70 to 6.52
15 | ≤ 5.00 | COc1ccccc1C(C)CC(=O)Nc1sc2c(c1C#N)CCN(C(=O)CCc1ccncc1)C2 (racemic) [Example 120, (RS)—N-[3-Cyano-6-(3-pyridin-4-yl-propanoyl)-4,5,6,7-tetrahydro-thieno[2,3-c]pyridin-2-yl]-3-(2-methoxy-phenyl)-butyramide] | ≥ 6.52
16 | ≤ 5.00 | CCOc1ccccc1C(C)CC(=O)Nc1sc2c(c1C#N)CCN(C(=O)CCc1ccncc1)C2 (racemic) [Example 121, (RS)—N-[3-Cyano-6-(3-pyridin-4-yl-propanoyl)-4,5,6,7-tetrahydro-thieno[2,3-c]pyridin-2-yl]-3-(2-ethoxy-phenyl)-butyramide] | 5.70 to 6.52
17 | ≤ 5.00 | CCOc1ccccc1C(C)CC(=O)Nc1sc2c(c1C#N)CCN(C(=O)Cn1ccnc1C)C2 (racemic) [Example 128, (RS)—N-{3-Cyano-6-[2-(2-methyl-imidazol-1-yl)-ethanoyl]-4,5,6,7-tetrahydro-thieno[2,3-c]pyridin-2-yl}-3-(2-ethoxy-phenyl)-butyramide] | ≥ 6.52
18 | ≤ 5.00 | CCOc1ccccc1C(C)CC(=O)Nc1sc2c(c1C#N)CCN(C(=O)Cn1cnc(C)c1)C2 (racemic) [Example 136, (RS)—N-{3-Cyano-6-[2-(4-methyl-imidazol-1-yl)-ethanoyl]-4,5,6,7-tetrahydro-thieno[2,3-c]pyridin-2-yl}-3-(2-ethoxy-phenyl)-butyramide] | 5.70 to 6.52
19 | ≤ 5.00 | CCOc1ccccc1C(C)CC(=O)Nc1sc2c(c1C#N)CCN(C(=O)CCc1ccccn1)C2 (racemic) [Example 137, (RS)—N-[3-Cyano-6-(3-pyridin-2-yl-propanoyl)-4,5,6,7-tetrahydro-thieno[2,3-c]pyridin-2-yl]-3-(2-ethoxy-phenyl)-butyramide] | ≥ 6.52
20 | ≤ 5.00 | COc1ccccc1C(C)CC(=O)Nc1sc2c(c1C#N)CCN(C(=O)Cn1cc(C)nc1C)C2 (racemic) [Example 144, (RS)—N-{3-Cyano-6-[2-(2,4-dimethyl-imidazol-1-yl)-ethanoyl]-4,5,6,7-tetrahydro-thieno[2,3-c]pyridin-2-yl}-3-(2-methoxy-phenyl)-butyramide] | 5.70 to 6.52
21 | ≤ 5.00 | CCOc1ccccc1C(C)CC(=O)Nc1sc2c(c1C#N)CCN(C(=O)Cn1cc(C)nc1C)C2 (racemic) [Example 145, (RS)—N-{3-Cyano-6-[2-(2,4-dimethyl-imidazol-1-yl)-ethanoyl]-4,5,6,7-tetrahydro-thieno[2,3-c]pyridin-2-yl}-3-(2-ethoxy-phenyl)-butyramide] | ≥ 6.52
22 | ≤ 5.00 | COc1ccccc1C(C)CC(=O)Nc1sc2c(c1C#N)CCN(C(=O)CCn1cnc(C)c1)C2 (racemic) [Example 152, (RS)—N-{3-Cyano-6-[3-(4-methyl-imidazol-1-yl)-propanoyl]-4,5,6,7-tetrahydro-thieno[2,3-c]pyridin-2-yl}-3-(2-methoxy-phenyl)-butyramide] | 5.70 to 6.52
